This data set can be described thus: Lipid content and purity by reverse phase HPLC (Example 3 Study 3). Type of data set: physicochemical. To be noted: in 20 mM citrate 1:57 SNALP formulation. The method, then: Samples were removed after 2 weeks of storage at room temperature (RT) or 40° C. (accelerated conditions). Samples were analyzed for particle size, encapsulation efficiency, lipid content and purity, and siRNA content and purity. Particle size measurements were obtained using a Malvern Zetasizer instrument and encapsulation efficiency was determined using a RiboGreen fluorometric assay. Lipid content and purity were analyzed by reverse phase HPLC. siRNA content and purity were analyzed by denaturing anion-exchange HPLC (DENAX).
Reverse phase HPLC analysis was performed to assess the level of lipid degradation. The results are shown Tables 23-25. […] The formulations containing EDTA or EDTA combined with additional antioxidants had no significant change in lipid content at either storage temperature. The same trends in lipid stability were observed regardless of which cationic lipid was present in the formulation.

These results are taken from patent US20130022649A1, “SNALP FORMULATIONS CONTAINING ANTIOXIDANTS” (Protiva Biotherapeutics, Inc., priority 2009, published 2013).

As to `CCCCC/C=C\C/C=C\CCCCCCCCC(CCCCCCCC/C=C\C/C=C\CCCCC)OCCCCN(C)C` [MC4 Ether, 4-((6Z,9Z,28Z,31Z)-heptatriaconta-6,9,28,31-tetraen-19-yloxy)-N,N-dimethylbutan-1-amine], the “cationic lipid content before the drop” value is reported as “about 58 mol %”. In addition, where the note is “2 weeks at 40° C.”, the “cationic lipid content after storage” value is reported as “about 52 mol %”.
